Laboratory results from ChEMBL document CHEMBL4190251, “Design and synthesis of conformationally constrained salinomycin derivatives” (Eur J Med Chem, 2017).
pIC50: −log10 of the molar value.

Columns and labels:
HT-29 [1] = assay: Antiproliferative activity against human HT-29 cells at 10 uM after 48 hrs by MTT assay relative to control; format: functional
HT-29 [2] = assay: Antiproliferative activity against human HT-29 cells after 48 hrs by MTT assay; format: functional, cell-based; settings: HT-29, 48 h

pIC50 (HT-29 [2]) | Structure (SMILES) | Activity (HT-29 [1]) [%]
 | C=CCCC(=O)O[C@@H]1CC[C@]2(O[C@H]([C@@H](CC)C(=O)[C@@H](C)[C@@H](O)[C@H](C)[C@@H]3O[C@@H]([C@@H](CC)C(=O)OCC=C)CC[C@@H]3C)[C@@H](C)C[C@H]2C)O[C@@]12CC[C@@](C)([C@H]1CC[C@](O)(CC)[C@H](C)O1)O2 | <10
5.12 | CC[C@H]1C(=O)[C@@H](C)[C@@H](O)[C@H](C)[C@@H]2O[C@H](CC[C@@H]2C)[C@@H](CC)C(=O)OC/C=C/CCC(=O)O[C@@H]2CC[C@]3(O[C@H]1[C@@H](C)C[C@H]3C)O[C@@]21CC[C@@](C)([C@H]2CC[C@](O)(CC)[C@H](C)O2)O1 | 67
 | C=CCOC(=O)[C@H](CC)[C@H]1CC[C@H](C)[C@H]([C@@H](C)[C@H](O)[C@H](C)C(=O)[C@H](CC)[C@H]2O[C@]3(CC[C@@H](OC(=O)C=C)[C@]4(CC[C@@](C)([C@H]5CC[C@](O)(CC)[C@H](C)O5)O4)O3)[C@H](C)C[C@@H]2C)O1 | <10
< 5.00 | CC[C@H]1C(=O)[C@@H](C)[C@@H](O)[C@H](C)[C@@H]2O[C@H](CC[C@@H]2C)[C@@H](CC)C(=O)OC/C=C/C(=O)O[C@@H]2CC[C@]3(O[C@H]1[C@@H](C)C[C@H]3C)O[C@@]21CC[C@@](C)([C@H]2CC[C@](O)(CC)[C@H](C)O2)O1 | 13.6
 | CC[C@@H](C(=O)[C@@H](C)[C@@H](O)[C@H](C)[C@@H]1O[C@@H]([C@@H](CC)C(=O)O)CC[C@@H]1C)[C@H]1O[C@]2(C=C[C@@H](O)[C@]3(CC[C@@](C)([C@H]4CC[C@](O)(CC)[C@H](C)O4)O3)O2)[C@H](C)C[C@@H]1C [SALINOMYCIN] | 76.1
